Laboratory results: publication PMC9655037, “Alternation of Organ-Specific Exposure in LPS-Induced Pneumonia Mice after the Inhalation of Tetrandrine Is Governed by Metabolizing Enzyme Suppression and Lysosomal Trapping” (International Journal of Molecular Sciences, 2022)

Columns and labels:
OATP1B1 = biological target: T1, OATP1B1 (Homo sapiens, UniProt Q9Y6L6); conditions: 5 min, 5 µM
T1 sequence (Q9Y6L6 1-691): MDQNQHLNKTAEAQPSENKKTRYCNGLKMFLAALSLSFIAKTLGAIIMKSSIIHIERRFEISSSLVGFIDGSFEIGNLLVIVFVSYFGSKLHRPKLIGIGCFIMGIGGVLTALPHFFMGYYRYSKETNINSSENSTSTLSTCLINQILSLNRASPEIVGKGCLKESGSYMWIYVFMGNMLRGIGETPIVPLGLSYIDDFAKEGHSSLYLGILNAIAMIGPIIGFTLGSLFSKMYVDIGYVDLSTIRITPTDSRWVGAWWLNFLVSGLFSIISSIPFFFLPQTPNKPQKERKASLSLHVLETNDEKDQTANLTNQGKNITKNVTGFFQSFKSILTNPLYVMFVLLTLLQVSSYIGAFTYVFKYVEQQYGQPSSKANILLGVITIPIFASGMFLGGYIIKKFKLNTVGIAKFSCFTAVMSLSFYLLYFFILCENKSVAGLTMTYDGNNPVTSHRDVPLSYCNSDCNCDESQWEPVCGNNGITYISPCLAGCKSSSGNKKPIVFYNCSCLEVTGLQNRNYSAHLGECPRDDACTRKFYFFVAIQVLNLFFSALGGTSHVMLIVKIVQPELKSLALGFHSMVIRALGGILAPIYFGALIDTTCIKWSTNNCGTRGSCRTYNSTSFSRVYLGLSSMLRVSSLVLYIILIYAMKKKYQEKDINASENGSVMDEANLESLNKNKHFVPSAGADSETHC
Protocol: Expressing OATP1B1/OATP1B3 or MOCK HEK293 cells were utilized to evaluate whether TET is a substrate of these two SLC transporters. Cell culture was performed as mentioned above. Cells were seeded on 96-well plates at the density of 0.8 × 10^5 cells/well. The culture medium was replaced with a medium containing 5 mM sodium butyrate for 24 h before the transport study to enhance the expression of transporters. For the transport assay, the DMEM media were removed and the cells were washed with pre-warmed Krebs–Henseleit buffer twice (0.1 mL/well). The second washing buffer was kept in the wells and the plate was incubated at 37 °C for 5 min before the uptake assay was initiated. […] The incubation solution was removed and the cells were washed with ice-cold transportation buffer three times (0.1 mL/well). […]
In the uptake study of TET by OATP1B1 and OATP1B3 expressing the HEK293 cell line, the uptake clearance (U) of the substrate was calculated according to Equation (5), the transporter-mediated uptake ratio (UR) was calculated by dividing the uptake clearance from transporter-expressing cells to that from the mock cells according to Equation (6), and the inhibition ratio (IR) was calculated according to Equation (7), where p represents the protein content and T is the duration of the incubation time. […]

OATP1B3 = biological target: T2, OATP1B3 (Homo sapiens, UniProt Q9NPD5); experiment: Uptake by OATP1B3-expressing HEK293 cells; conditions: human, 5 min
T2 sequence (Q9NPD5 1-702): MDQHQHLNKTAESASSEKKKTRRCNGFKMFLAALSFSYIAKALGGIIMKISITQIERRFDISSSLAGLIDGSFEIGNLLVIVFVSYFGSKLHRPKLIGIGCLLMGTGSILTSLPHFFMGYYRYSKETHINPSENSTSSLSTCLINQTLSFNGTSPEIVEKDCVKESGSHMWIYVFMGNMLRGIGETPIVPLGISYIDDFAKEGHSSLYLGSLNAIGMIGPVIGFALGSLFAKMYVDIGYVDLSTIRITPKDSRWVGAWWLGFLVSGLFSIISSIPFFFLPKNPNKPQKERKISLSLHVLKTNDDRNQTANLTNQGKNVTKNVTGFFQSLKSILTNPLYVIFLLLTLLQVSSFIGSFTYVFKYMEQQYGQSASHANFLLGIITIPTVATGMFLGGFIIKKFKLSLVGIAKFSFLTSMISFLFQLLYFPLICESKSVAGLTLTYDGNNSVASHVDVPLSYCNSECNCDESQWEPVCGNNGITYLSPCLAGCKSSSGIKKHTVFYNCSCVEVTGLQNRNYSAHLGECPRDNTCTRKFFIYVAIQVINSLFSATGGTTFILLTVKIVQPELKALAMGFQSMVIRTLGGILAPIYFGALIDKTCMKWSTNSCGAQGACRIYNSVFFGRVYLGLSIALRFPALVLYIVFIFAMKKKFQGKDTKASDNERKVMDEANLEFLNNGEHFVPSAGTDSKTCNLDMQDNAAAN
Protocol: (§1) Expressing OATP1B1/OATP1B3 or MOCK HEK293 cells were utilized to evaluate whether TET is a substrate of these two SLC transporters. Cell culture was performed as mentioned above. Cells were seeded on 96-well plates at the density of 0.8 × 10^5 cells/well. The culture medium was replaced with a medium containing 5 mM sodium butyrate for 24 h before the transport study to enhance the expression of transporters. For the transport assay, the DMEM media were removed and the cells were washed with pre-warmed Krebs–Henseleit buffer twice (0.1 mL/well). The second washing buffer was kept in the wells and the plate was incubated at 37 °C for 5 min before the uptake assay was initiated. […] The incubation solution was removed and the cells were washed with ice-cold transportation buffer three times (0.1 mL/well). A total of 0.1 mL pure water was added to each well to lyse the cells by repeated freezing and thawing (−196 °C–37 °C, three times). The cell lysate was collected and stored at −40 °C for LC-MS/MS analysis and protein measurement.
(§2) In the uptake study of TET by OATP1B1 and OATP1B3 expressing the HEK293 cell line, the uptake clearance (U) of the substrate was calculated according to Equation (5), the transporter-mediated uptake ratio (UR) was calculated by dividing the uptake clearance from transporter-expressing cells to that from the mock cells according to Equation (6), and the inhibition ratio (IR) was calculated according to Equation (7), where p represents the protein content and T is the duration of the incubation time. (5) U=Clysate/p×T (6) UR=U/UMOCK (7) IR=(1−Uwith inhibitor−Umock with inhibitor/Uwithout inhibitor−Umock without inhibitor)×100

HEK293-MOCK cells = experiment: Uptake by MOCK (empty vector) HEK293 cells; conditions: TET 5 μM, 5 min
Protocol: as §1, §2

[1] = Bidirectional transport in MOCK LLC-PK1 cells; conditions: pig
Protocol: (§3) MDR1 expressing LLC-PK1 cells or MOCK LLC-PK1 cells were utilized to identify whether P-gp is involved in the efflux transport across the membrane barrier. Cells were cultured as described above. Cells were seeded at a density of 2 × 10^4 in Millicell® 24-well cell culture plates with a 6.5 mm insert (0.4 µm polycarbonate membrane) from Corning (Kennebunk, ME, USA) 7 days before the experiments. On the day of the experiment, transepithelial electrical resistance (TEER) was measured to assess monolayer integrity. After washing the cells twice with HBSS, transport experiments in either the apical-to-basolateral direction (A-B) or the basolateral-to-apical direction (B-A) were conducted. […] After incubating the plates at 37 °C for 2 h, samples from the receiving and donor wells (50 μL) were taken simultaneously. All the samples were stored at −40 °C for LC-MS/MS analysis.
(§4) In the bidirectional transport study in LLC-PK1 cells, the following equations were used to calculate Papp values and the MDR1 efflux ratio.

MDR1 (P-gp) = MDR1 (P-gp) (Homo sapiens, UniProt P08183); experiment: in vitro
Chain of MDR1 (P-gp) (P08183 whole entry): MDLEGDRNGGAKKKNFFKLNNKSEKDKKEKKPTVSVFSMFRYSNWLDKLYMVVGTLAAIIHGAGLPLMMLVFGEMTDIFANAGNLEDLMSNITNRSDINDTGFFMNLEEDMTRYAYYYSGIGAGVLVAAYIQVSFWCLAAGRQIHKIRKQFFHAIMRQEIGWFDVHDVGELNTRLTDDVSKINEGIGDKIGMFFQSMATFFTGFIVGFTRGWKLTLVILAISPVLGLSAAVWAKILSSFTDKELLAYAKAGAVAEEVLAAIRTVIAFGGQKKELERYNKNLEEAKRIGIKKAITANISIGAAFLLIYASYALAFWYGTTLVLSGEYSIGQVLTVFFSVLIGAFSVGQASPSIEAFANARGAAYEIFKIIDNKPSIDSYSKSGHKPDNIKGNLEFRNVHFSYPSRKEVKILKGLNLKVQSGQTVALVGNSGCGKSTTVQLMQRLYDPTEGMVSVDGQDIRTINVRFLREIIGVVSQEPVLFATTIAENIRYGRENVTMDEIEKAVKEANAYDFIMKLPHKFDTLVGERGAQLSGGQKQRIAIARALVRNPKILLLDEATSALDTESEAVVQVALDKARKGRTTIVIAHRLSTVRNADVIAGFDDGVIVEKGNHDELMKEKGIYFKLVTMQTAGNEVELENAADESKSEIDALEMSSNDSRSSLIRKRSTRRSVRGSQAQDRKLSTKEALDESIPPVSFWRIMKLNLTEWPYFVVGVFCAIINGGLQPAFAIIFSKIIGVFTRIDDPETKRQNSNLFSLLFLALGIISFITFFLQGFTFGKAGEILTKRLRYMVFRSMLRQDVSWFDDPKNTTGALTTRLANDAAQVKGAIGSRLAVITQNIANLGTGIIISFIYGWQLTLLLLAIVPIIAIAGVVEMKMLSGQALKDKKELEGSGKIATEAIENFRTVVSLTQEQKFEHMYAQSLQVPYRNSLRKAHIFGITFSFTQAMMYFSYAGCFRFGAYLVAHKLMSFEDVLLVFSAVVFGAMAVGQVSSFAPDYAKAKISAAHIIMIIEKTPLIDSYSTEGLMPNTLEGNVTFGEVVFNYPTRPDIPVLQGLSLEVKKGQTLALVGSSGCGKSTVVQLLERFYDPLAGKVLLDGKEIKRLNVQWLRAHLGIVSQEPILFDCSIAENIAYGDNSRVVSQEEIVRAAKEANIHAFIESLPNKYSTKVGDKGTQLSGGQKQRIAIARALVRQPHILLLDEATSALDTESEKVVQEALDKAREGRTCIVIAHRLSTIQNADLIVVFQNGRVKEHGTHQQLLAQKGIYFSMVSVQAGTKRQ
Protocol: as §3, §4

CYP3A = conditions: cited from earlier work

COc1ccc2cc1Oc1ccc(cc1)C[C@H]1c3cc(c(OC)cc3CCN1C)Oc1c(OC)c(OC)cc3c1[C@H](C2)N(C)CC3 [TET, Tetrandrine]
Inhibition Ratio (OATP1B1): 11.1
Uptake Ratio (OATP1B1): 1.2
Inhibition Ratio (OATP1B3; 5 µM): 20.6
Uptake Clearance (OATP1B3; 5 µM): 120 ± 8.61 nM/min/mg Protein
Uptake Ratio (OATP1B3; 5 µM): 1.01
Uptake Clearance (OATP1B3; 5 μM): 151 ± 25.5 nM/min/mg Protein
Uptake Clearance (HEK293-MOCK cells; MOCK (OATP1B1 set)): 131 ± 11.3 nM/min/mg Protein
Uptake Clearance (HEK293-MOCK cells; MOCK (OATP1B3 set)): 126 ± 10.9 nM/min/mg Protein
Uptake Clearance (HEK293-MOCK cells; MOCK+RIF (OATP1B1 set)): 117 ± 12.8 nM/min/mg Protein
Uptake Clearance (HEK293-MOCK cells; MOCK+RIF (OATP1B3 set)): 119 ± 8.03 nM/min/mg Protein
Papp A→B at 2 h [1]: 1.22 ± 0.07 ×10⁻⁶ cm/s
Papp B→A at 2 h [1]: 3.83 ± 0.12 ×10⁻⁶ cm/s
efflux ratio at 2 h ([1]; LLC-PK1): 3.13
Papp A→B at 2 h (MDR1 (P-gp)): 0.52 ± 0.19 ×10⁻⁶ cm/s
Papp B→A at 2 h (MDR1 (P-gp); human, LLC-PK1): 14 ± 2.95 ×10⁻⁶ cm/s
efflux ratio at 2 h (MDR1 (P-gp); human, LLC-PK1): 32.5
fm (CYP3A, major isoform toward TET) (CYP3A): > 90%
